These results are taken from patent US7541371B2, “Method for treating a motor neuron disease” (Eisai R&D Management Co., Ltd., priority 2006, dated 2009).

Experiment [1] deals with T1, 5-HT1A receptor (Sus scrofa, UniProt A0A4X1UTF5).
T1 construct: to a swine hippocampus membrane fraction; from tissue; host or cells: swine hippocampus
T1 sequence (A0A4X1UTF5 1-422): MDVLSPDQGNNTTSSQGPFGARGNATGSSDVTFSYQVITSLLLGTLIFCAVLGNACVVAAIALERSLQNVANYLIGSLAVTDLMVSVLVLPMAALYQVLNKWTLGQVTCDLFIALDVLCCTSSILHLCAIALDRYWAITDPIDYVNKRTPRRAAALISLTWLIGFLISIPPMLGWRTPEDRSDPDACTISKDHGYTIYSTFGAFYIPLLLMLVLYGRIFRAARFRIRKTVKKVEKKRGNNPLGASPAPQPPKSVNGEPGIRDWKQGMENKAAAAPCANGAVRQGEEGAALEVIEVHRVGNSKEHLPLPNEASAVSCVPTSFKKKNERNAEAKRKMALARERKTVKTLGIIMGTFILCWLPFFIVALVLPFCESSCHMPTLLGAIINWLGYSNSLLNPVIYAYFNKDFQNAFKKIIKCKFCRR
The experiment is described as follows: Test on affinity for serotonin 1A receptor ([3H]MPPF, hippocampus membrane fraction). The experiment is classed as binding, swine. Particulars: low affinity IC50 divided by high affinity IC50; not more than 1 = no intrinsic activity, not less than 2 = intrinsic activity. The method, then:
The affinity of test compounds for the 5-HT1A receptor was determined by an experiment for inhibition of a test compound against the binding of [^3H]-4-(2′-Methoxy)phenyl-1-[2′-(N-2″-pyridinyl)-p-fluorobenzamido]ethyl-piperazine (MPPF), selectively bound to the 5-HT1A receptor, to a swine hippocampus membrane fraction. The 5-HT1A receptor, which is a G protein binding receptor, is brought to a G protein bound state upon the addition of MgCl2, and is brought to a G protein nonbound state upon the addition of guanylylimidodiphosphate (Gpp(NH)p). It is generally known that a G protein receptor agonist has stronger affinity for the G protein bound receptor depending upon the level of the intrinsic activity. Accordingly, the affinity of a test compound for the receptor in a G protein nonbound state and the affinity of the test compound for the receptor in a G protein bound state were determined and compared with each other to estimate the level of the intrinsic activity of the test compound.
The greater this value, the higher the intrinsic activity.
Swine hippocampus was homogenized in an ice-cooled 50 mM Tris hydrochloride buffer (pH 7.4; hereinafter referred to as buffer A). The suspension was centrifuged at 40,000×g for 15 min. The resultant sediment was suspended in buffer A, and the suspension was then centrifuged at 40,000×g for 15 min. The same procedure was further repeated twice or three times. The finally obtained sediment was suspended in buffer A in an amount of about ten times larger than the wet weight of the swine hippocampus to prepare a membrane fraction which was then stored at −80° C. until use.
A mixture (0.5 mL) for incubation, containing an appropriate amount of the membrane fraction, a test compound in a desired concentration, MgCl2 (final concentration: 10 mM) or Gpp(NH)p (final concentration: 1 mM), [^3H]MPPF (final concentration: 0.5 nM), dimethyl sulfoxide (final concentration: 1% (v/v)), and 50 mM Tris hydrochloride buffer (pH 7.4), was provided. Upon the addition of the membrane fraction, a reaction started, and the mixture was incubated at 37° C. for 30 min. After the incubation, the incubated mixture was suction filtered through a glass filter with a cell harvester. After washing the glass filter with ice-cooled buffer A, the radioactivity bound to the receptor was measured with a liquid scintillation counter. The binding detected in the presence of 10 μM WAY-100,635. was regarded as nonspecific binding.

In experiment [2] the test system is rat motor neuron cells. Description: Inhibition of 5HT toxicity in rat motor neuron primary pure culture system. Particulars: survival three days after seeding; for Inhibition of 5HT toxicity (survival rate): antagonist added 5 to 10 min before 5HT, FIG. 2, FIG. 3. The experiment is classed as cell-based. The method, then: (§1) Based on the results of cell measurement, the rat motor neuron cells were diluted with the culture solution to 1.1 to 1.2×10^4 cells/mL. Greiner 4-well dishes previously coated with poly-L-ornithine/laminin were seeded with the cell suspension at 90 μL/well with a 1 mL Pipetman. […] The initial viable cell count was measured three hr after the addition of serotonin (5HT). The viable cell count was again measured three days after the cell seeding, and the survival rate was calculated based on the initial viable cell count. The cell count measurement was carried out under a phase-contrast microscope using marks previously applied on the backside of the Greiner 4-well dish as a reference.
as §1

Experiment [3] concerns rat motor neuron cells. The experiment is described as follows: Evaluation of toxicity of 5HT in rat motor neuron primary pure culture system. The experiment is classed as cell-based. The method, then:
Rat motor neuron cells were subjected to pure culture in the presence of 30 ng/mL BDNF for three days, and toxicity of serotonin (5HT) was evaluated.
The rat motor neuron primary pure culture was carried out by a method which is modification of Nishijima et al. method (Nishijima C. et al., J Neurochem 76, 383-390(2001)) by incorporating a purification method and the like in the Nishijima et al. method.
A necessary number of Greiner-4-well dishes (10 mm i.d. wells) (Greiner bio-one) were provided, and 0.15 M sodium borate buffer (pH 8.3) containing 0.5 mg/mL poly-L-ornithine was added at 100 μL/well followed by standing at 4° C. overnight. Ornithine was removed by suction, the residue was washed three times with PBS(−), and L-15 (CO2) containing 10 μg/mL laminin (Gibco-BRL) was spread at 50 μL/well. […]
Wistar pregnant rats (fifteen days pregnant) (Tokyo Laboratory Animals Science Co., Ltd.) were etherized and were then sacrificed by cervical dislocation. […] One hr after the start of the culture, serotonin (serotonin creatinine sulfate complex, Sigma) or glutamate (Sigma) was added thereto, and, three hr after that, the initial viable cell count was measured. The viable cell count was again measured three days after the cell seeding, and the survival rate was calculated based on the initial viable cell count. […]

In experiment [4] the target is T2, serotonin 2 receptor (Mus musculus, UniProt P35363).
T2 construct: known to induce mouse head twitch behavior through a serotonin 2 receptor; from tissue; host or cells: living mouse (in vivo behaviour test)
T2 sequence (P35363 whole entry): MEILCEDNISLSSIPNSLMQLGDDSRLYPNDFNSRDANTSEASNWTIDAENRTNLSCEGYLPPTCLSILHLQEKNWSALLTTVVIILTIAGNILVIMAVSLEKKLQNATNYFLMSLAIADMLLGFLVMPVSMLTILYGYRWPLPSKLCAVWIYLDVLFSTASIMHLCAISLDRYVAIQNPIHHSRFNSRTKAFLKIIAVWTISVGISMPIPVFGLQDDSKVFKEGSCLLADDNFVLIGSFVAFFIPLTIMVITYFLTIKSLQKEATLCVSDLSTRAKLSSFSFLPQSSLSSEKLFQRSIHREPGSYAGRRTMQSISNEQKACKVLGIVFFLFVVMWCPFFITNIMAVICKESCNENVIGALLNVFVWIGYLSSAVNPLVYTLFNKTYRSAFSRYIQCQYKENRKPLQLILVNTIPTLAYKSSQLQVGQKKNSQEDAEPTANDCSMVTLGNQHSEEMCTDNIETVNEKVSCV
The experiment is described as follows: Mouse head twitch behavior test (tryptamine-induced). The experiment is classed as in vivo. Particulars: tryptamine 30 mg/kg i.v.; test compound 15 min before; FIG. 7. The method, then:
The serotonin 2 receptor antagonist activity of test compounds was determined by a mouse head twitch behavior test. Tryptamine is a serotonin 2 receptor agonist and is known to induce mouse head twitch behavior through a serotonin 2 receptor. Accordingly, the serotonin 2 receptor antagonist activity of the test compounds can be evaluated based on the head twitch behavior by tryptamine. Tryptamine was administered intravenously to mice at 30 mg/kg, and the number of times of appearance of the head twitch within one min after the start of administration counted. The test compounds (compounds 1 and 4) were administered 15 min before the intravenous administration of tryptamine.
[^3H]8-hydroxy-dipropylaminotetralin is known to be used for the measurement of binding of test compounds to serotonin 1A receptors (European Journal of Pharmacology, 90, p. 151-153, 1983.). Further, [^3H]ketanserin is known to be used for the measurement of binding of test compounds to serotonin 2A receptors (Brian Dean and Wendy Hayes, Schizophrenia Research, 21, p. 133-139, 1996.). Furthermore, the test on mouse head twitch behavior with tryptamine is known to be used for the measurement of the serotonin 2 receptor antagonist activity of test compounds (Yamada J., et al., European Journal of Pharmacology, 140, p. 323-330, 1987; and Yamada J., et al., Neuropharmacology, 26, p. 49-53, 1987.).

Experiment [5] has as its target T1, 5-HT1A receptor. Particulars: receptor in G protein bound state (MgCl2 10 mM), 0.5 nM [3H]MPPF, swine hippocampus membrane; WO 2005/108389; read-out: High affinity; cited from earlier work.

Consider `COc1ccc2c(C)noc2c1CCN1CCC(n2ccc3ccc(C(N)=O)cc32)CC1` [Compound 14, 1-{1-[2-(6-methoxy-3-methylbenzo[d]isoxazol-7-yl)ethyl]piperidin-4-yl}-1H-indole-6-carboxamide], for which, in experiment [1], the L/H ratio is 1.6.

For `OC(c1ccccc1)C1CCN(CCc2ccccc2)CC1` (stereo not shown) [MDL-11939], in experiment [2], the “Inhibition of 5HT toxicity (survival rate)” value (“Inhibition of 5HT toxicity” below) is “inhibited”.

Take `COc1cc2onc(C)c2cc1CCN1CCC(n2ccc3ccc(C(N)=O)cc32)CC1` [Compound 13, 1-{1-[2-(6-methoxy-3-methylbenzo[d]isoxazol-5-yl)ethyl]piperidin-4-yl}-1H-indole-6-carboxamide]: the L/H ratio in experiment [1] was found to be 1.3.

On to `NCCc1c[nH]c2ccc(O)cc12` [Compound 5HT, serotonin], for which the “5HT toxicity compared with glutamate toxicity” value in experiment [3] (serum-free culture solution, FIG. 1B) is on record as “comparable with glutamate toxicity”. Further, the “Toxicity of 5HT (survival rate of motor neuron cells)” value in experiment [3] (three days culture, 30 ng/mL BDNF, FIG. 1A) is “showed toxicity in a concentration-dependent manner”.

Regarding `CNC(=O)Cc1ccc2ccn(C3CCN(CCc4ccccc4F)CC3)c2c1` [Compound 1, N-methyl-{1-[1-(2-fluorophenethyl)piperidin-4-yl]-1H-indol-6-yl}acetamide], the “Serotonin 2A receptor antagonist activity (head twitch by tryptamine)” value in experiment [4] was “excellent serotonin 2A receptor antagonist activity”. Besides, the “Concentration at which 5HT excitotoxicity is inhibited” value in experiment [2] (compound added 5 to 10 min before 5HT, FIG. 5, FIG. 6) is reported as “not less than 0.1 nM”.

Take `COc1cc2c(cc1CCN1CCC(n3ccc4ccc(C(N)=O)cc43)CC1)OCCO2` [Compound 15, 1-{1-[2-(7-methoxy-2,3-dihydrobenzo[1,4]dioxin-6-yl)ethyl]piperidin-4-yl}-1H-indole-6-carboxamide]: the L/H ratio in experiment [1] is 0.9.

On to `COc1ccc2nc(C)oc2c1CCN1CCC(n2ccc3ccc(C(N)=O)cc32)CC1` [Compound 12, 1-{1-[2-(6-methoxy-2-methylbenzoxazol-7-yl)ethyl]piperidin-4-yl}-1H-indole-6-carboxamide], for which the L/H ratio in experiment [1] is on record as 0.7.

Regarding `COc1cc2oc(C)nc2cc1CCN1CCC(n2ccc3ccc(C(N)=O)cc32)CC1` [Compound 11, 1-{1-[2-(6-methoxy-2-methylbenzoxazol-5-yl)ethyl]piperidin-4-yl}-1H-indole-6-carboxamide], the L/H ratio in experiment [1] is listed as 0.9.

In the case of `CNC(=O)c1ccc2ccn(C3CCN(CCc4c(OC)ccc5c4OC(C)(C)CC5=O)CC3)c2c1` [Compound 9, 1-{1-[2-(7-methoxy-2,2-dimethyl-4-oxochroman-8-yl)ethyl]piperidin-4-yl}-N-methyl-1H-indole-6-carboxamide], the L/H ratio in experiment [1] stood at 0.8. In experiment [5], the IC50 is 0.2 nM.

For the molecule `COc1ccc2c(c1CCN1CCC(n3ccc4ccc(C(N)=O)cc43)CC1)OC(C)(C)CC2=O` [Compound 10, 1-{1-[2-(7-methoxy-2,2-dimethyl-4-oxochroman-8-yl)ethyl]piperidin-4-yl}-1H-indole-6-carboxamide], the L/H ratio in experiment [1] is reported as 0.8. Also, the IC50 in experiment [5] is 0.13 nM.

On to `COc1ccccc1N1CCN(CCCCN2C(=O)c3ccccc3C2=O)CC1` [NAN-190], for which the “Inhibition of 5HT toxicity” value in experiment [2] was “inhibited”.

For `NCCOB(c1ccccc1)c1ccccc1` [Compound 2-APB], in experiment [2], the “Inhibition of 5HT toxicity” value was “inhibition of 5HT excitotoxicity”.
